Assay results from PubChem BioAssay AID256 (DTP/NCI, 2004).
Where “and” joins values, the source holds several entries; their conditions need not be identical. Equal values may be shown once. Inconclusive results and toxic doses are left out. Rule for the calls: active = survival T/C of 150% or more; inactive = T/C below 125% in these data.

System: CD2F1 mice, L1210 leukemia ip, survival T/C
Test: NCI In Vivo Anticancer Drug Screen. Data for tumor model L1210 Leukemia (intraperitoneal) in CD2F1 (CDF1) mice
Settings: higher = longer survival
Outline: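 Tumor-bearing mice (transplanted tumor) were split into treated and vehicle control groups, and the measured endpoint of each treated group was divided by that of its vehicle controls.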

[1] = endpoint: mean survival time, dose: 100.0 mg/kg/injection, schedule: Q01DX009 (ip), vehicle: saline with Tween-80
[2] = endpoint: mean survival time, dose: 100.0 mg/kg/injection, schedule: Q04DX003 (ip), vehicle: saline with Tween-80
[3] = endpoint: mean survival time, dose: 200.0 mg/kg/injection, schedule: Q04DX003 (ip), vehicle: saline with Tween-80
[4] = endpoint: mean survival time, dose: 400.0 mg/kg/injection, schedule: Q04DX003 (ip), vehicle: saline with Tween-80
[5] = endpoint: mean survival time, dose: 100.0 mg/kg/injection, schedule: Q04DX003 (ip), vehicle: Klucel (hydroxypropylcellulose) (HPC)
[6] = endpoint: mean survival time, dose: 200.0 mg/kg/injection, schedule: Q04DX003 (ip), vehicle: Klucel (hydroxypropylcellulose) (HPC)
[7] = endpoint: mean survival time, dose: 400.0 mg/kg/injection, schedule: Q04DX003 (ip), vehicle: Klucel (hydroxypropylcellulose) (HPC)
[8] = endpoint: mean survival time, dose: 100.0 mg/kg/injection, schedule: Q01DX001 (ip), vehicle: saline with Tween-80
[9] = endpoint: mean survival time, dose: 200.0 mg/kg/injection, schedule: Q01DX001 (ip), vehicle: saline with Tween-80
[10] = endpoint: mean survival time, dose: 400.0 mg/kg/injection, schedule: Q01DX001 (ip), vehicle: saline with Tween-80
[11] = endpoint: mean survival time, dose: 12.5 mg/kg/injection, schedule: Q01DX009 (ip), vehicle: saline with Tween-80
[12] = endpoint: mean survival time, dose: 25.0 mg/kg/injection, schedule: Q01DX009 (ip), vehicle: saline with Tween-80
[13] = endpoint: mean survival time, dose: 50.0 mg/kg/injection, schedule: Q01DX009 (ip), vehicle: saline with Tween-80

Measured: T/C

Cc1nc2ccc(Cl)cc2c(=O)o1
inactive: [1] 103 % of control | [2] 96 % of control | endpoint: mean survival time, dose: 200.0 mg/kg/injection, schedule: Q01DX009 (ip), vehicle: saline with Tween-80 103 % of control | [3] 93 % of control | endpoint: mean survival time, dose: 400.0 mg/kg/injection, schedule: Q01DX009 (ip), vehicle: saline with Tween-80 96 % of control | [4] 93 % of control

CSc1ncnc2c1ccn2C1OC(CO)C(O)C1O (centres undefined)
inactive: endpoint: median survival time, dose: 12.5 mg/kg/injection, schedule: Q01DX005 (ip), vehicle: saline 106 % of control | endpoint: median survival time, dose: 25.0 mg/kg/injection, schedule: Q01DX005 (ip), vehicle: saline 105 % of control | endpoint: median survival time, dose: 50.0 mg/kg/injection, schedule: Q01DX005 (ip), vehicle: saline 102 % of control | endpoint: median survival time, dose: 100.0 mg/kg/injection, schedule: Q01DX005 (ip), vehicle: saline 103 % of control | endpoint: median survival time, dose: 200.0 mg/kg/injection, schedule: Q01DX005 (ip), vehicle: saline 94 % of control

O=P(c1ccccc1)(c1ccccc1)c1ccccc1 (tested in a mixture with another compound)
inactive: endpoint: mean survival time, dose: 12.5 mg/kg/injection, schedule: Q01DX009 (ip), vehicle: other 100 % of control | endpoint: mean survival time, dose: 25.0 mg/kg/injection, schedule: Q01DX009 (ip), vehicle: other 100 % of control | endpoint: mean survival time, dose: 50.0 mg/kg/injection, schedule: Q01DX009 (ip), vehicle: other 101 % of control | endpoint: mean survival time, dose: 100.0 mg/kg/injection, schedule: Q01DX009 (ip), vehicle: other 96 % of control | endpoint: mean survival time, dose: 200.0 mg/kg/injection, schedule: Q01DX009 (ip), vehicle: other 103 % of control

CCC(C)(C)C(=O)O
inactive: [2] 100 % of control | [3] 103 % of control | [4] 105 % of control

CCCN(CCC)c1ccc(C#N)cc1
inactive: [5] 91 % of control | [6] 92 % of control | [7] 95 % of control

CCN=c1cc2oc3cc(NCC)c(C)cc3c(-c3ccccc3C(=O)OCC)c-2cc1C
inactive: endpoint: mean survival time, dose: 2.5 mg/kg/injection, schedule: Q04DX003 (ip), vehicle: saline 101 % of control | endpoint: mean survival time, dose: 5.0 mg/kg/injection, schedule: Q04DX003 (ip), vehicle: saline 109 % of control | endpoint: mean survival time, dose: 10.0 mg/kg/injection, schedule: Q04DX003 (ip), vehicle: saline 90 % of control and 102 % of control

CCOC1(C(C)C)CCC(C)/C(=C\c2ccc([N+](=O)[O-])cc2)C1=O (centres undefined)
inactive: [2] 93 % of control | [3] 93 % of control | [4] 96 % of control

O=[N+]([O-])c1ccc(-c2cn3ccsc3n2)cc1
inactive: endpoint: mean survival time, dose: 100.0 mg/kg/injection, schedule: Q01DX001 (ip), vehicle: Klucel (hydroxypropylcellulose) (HPC) 87 % of control | endpoint: mean survival time, dose: 200.0 mg/kg/injection, schedule: Q01DX001 (ip), vehicle: Klucel (hydroxypropylcellulose) (HPC) 90 % of control | endpoint: mean survival time, dose: 400.0 mg/kg/injection, schedule: Q01DX001 (ip), vehicle: Klucel (hydroxypropylcellulose) (HPC) 90 % of control

CCC(/C=C1\Oc2ccc(-c3ccccc3)cc2N1CC)=C\c1oc2ccc(-c3ccccc3)cc2[n+]1CC
inactive: endpoint: mean survival time, dose: 4.4 mg/kg/injection, schedule: Q01DX009 (ip), vehicle: other 117 % of control

COC(=O)CC1(C(=O)OC)Nc2cc(Cl)c(Cl)cc2S(=O)(=O)N1O (centres undefined)
inactive: [8] 106 % of control | [9] 94 % of control | [10] 94 % of control

Cc1c2c(cc3c1CCC1(C)C3CCC1C(C)/C=C/C(C)C(C)C)CCC=C2 (centres undefined)
inactive: [8] 95 % of control | [9] 90 % of control | [10] 86 % of control

CS(=O)(=O)Nc1ccc(Nc2c3ccccc3nc3cc([N+](=O)[O-])ccc23)cc1
active: endpoint: mean survival time, dose: 7.0 mg/kg/injection, schedule: Q01DX009 (ip), vehicle: saline 237 % of control | endpoint: mean survival time, dose: 10.0 mg/kg/injection, schedule: Q01DX009 (ip), vehicle: saline 155 % of control | endpoint: mean survival time, dose: 12.5 mg/kg/injection, schedule: Q01DX001 (ip), vehicle: saline 175 % of control | endpoint: mean survival time, dose: 25.0 mg/kg/injection, schedule: Q01DX001 (ip), vehicle: saline 195 % of control | endpoint: mean survival time, dose: 50.0 mg/kg/injection, schedule: Q01DX001 (ip), vehicle: saline 170 % of control
inactive: endpoint: mean survival time, dose: 100.0 mg/kg/injection, schedule: Q01DX001 (ip), vehicle: saline 116 % of control

COc1ccc2c(ccc3oc([N+](=O)[O-])cc32)c1
inactive: endpoint: median survival time, dose: 6.25 mg/kg/injection, schedule: Q01DX009 (ip), vehicle: saline with Tween-80 105 % of control | endpoint: median survival time, dose: 12.5 mg/kg/injection, schedule: Q01DX009 (ip), vehicle: saline with Tween-80 105 % of control | endpoint: median survival time, dose: 25.0 mg/kg/injection, schedule: Q01DX009 (ip), vehicle: saline with Tween-80 105 % of control | endpoint: median survival time, dose: 50.0 mg/kg/injection, schedule: Q01DX009 (ip), vehicle: saline with Tween-80 105 % of control | endpoint: median survival time, dose: 100.0 mg/kg/injection, schedule: Q01DX009 (ip), vehicle: saline with Tween-80 107 % of control | endpoint: median survival time, dose: 200.0 mg/kg/injection, schedule: Q01DX009 (ip), vehicle: saline with Tween-80 92 % of control

CCCCN1C(=O)C(=O)N(c2cc(C)c(C)cc2C)C1=O
inactive: [11] 100 % of control | [12] 96 % of control | [13] 92 % of control | [1] 90 % of control

CCCCCCCCCCCCNCCC#N
inactive: [12] 100 % of control | [13] 101 % of control | [1] 95 % of control | [2] 93 % of control | [3] 87 % of control

O=C(Nc1ccn(C2CC(O)C(CO)O2)c(=O)n1)c1ccccc1 (centres undefined)
inactive: endpoint: median survival time, dose: 12.5 mg/kg/injection, schedule: Q01DX005 (ip), vehicle: saline with Tween-80 100 % of control | endpoint: median survival time, dose: 25.0 mg/kg/injection, schedule: Q01DX005 (ip), vehicle: saline with Tween-80 104 % of control | endpoint: median survival time, dose: 50.0 mg/kg/injection, schedule: Q01DX005 (ip), vehicle: saline with Tween-80 103 % of control | endpoint: median survival time, dose: 100.0 mg/kg/injection, schedule: Q01DX005 (ip), vehicle: saline with Tween-80 98 % of control | endpoint: median survival time, dose: 200.0 mg/kg/injection, schedule: Q01DX005 (ip), vehicle: saline with Tween-80 95 % of control

CC(=O)c1ccc[n+](C)c1
inactive: endpoint: mean survival time, dose: 100.0 mg/kg/injection, schedule: Q04DX003 (ip), vehicle: saline 104 % of control | endpoint: mean survival time, dose: 200.0 mg/kg/injection, schedule: Q04DX003 (ip), vehicle: saline 104 % of control

COc1cc(N=Nc2ccccc2C(=O)O)ccc1N(CCCl)CCCl
inactive: endpoint: mean survival time, dose: 6.25 mg/kg/injection, schedule: Q01DX009 (ip), vehicle: Klucel (hydroxypropylcellulose) (HPC) 99 % of control | endpoint: mean survival time, dose: 12.5 mg/kg/injection, schedule: Q01DX009 (ip), vehicle: Klucel (hydroxypropylcellulose) (HPC) 108 % of control | endpoint: mean survival time, dose: 25.0 mg/kg/injection, schedule: Q01DX009 (ip), vehicle: Klucel (hydroxypropylcellulose) (HPC) 123 % of control

Brc1ccc(-c2ccc(Br)cc2)cc1
inactive: [5] 105 % of control | [6] 95 % of control | [7] 95 % of control

COC(=O)c1csc(NC2OC(CO)C(O)C2O)n1 (centres undefined)
inactive: endpoint: median survival time, dose: 45.9 mg/kg/injection, schedule: Q01DX005 (ip), vehicle: saline 100 % of control | endpoint: median survival time, dose: 91.8 mg/kg/injection, schedule: Q01DX005 (ip), vehicle: saline 100 % of control | endpoint: median survival time, dose: 183.6 mg/kg/injection, schedule: Q01DX005 (ip), vehicle: saline 97 % of control

CC#CC(=O)SCCNC(=O)CC
inactive: [11] 101 % of control | [12] 101 % of control | endpoint: mean survival time, dose: 25.0 mg/kg/injection, schedule: Q04DX003 (ip), vehicle: saline with Tween-80 112 % of control | [13] 101 % of control | endpoint: mean survival time, dose: 50.0 mg/kg/injection, schedule: Q04DX003 (ip), vehicle: saline with Tween-80 106 % of control | [2] 86 % of control

CCCCCC1C(O)C(=O)OC1(C(F)(F)F)C(F)(F)F (centres undefined)
inactive: [5] 91 % of control | [6] 94 % of control | [7] 96 % of control

COc1ccccc1N1CCCSC1=Nc1ccccc1
inactive: endpoint: mean survival time, dose: 100.0 mg/kg/injection, schedule: Q04DX002 (ip), vehicle: saline 98 % of control | endpoint: mean survival time, dose: 200.0 mg/kg/injection, schedule: Q04DX002 (ip), vehicle: saline 94 % of control

CC12OC3(C)C4C(O)C1C1(C)OC4(C)C3C(O)C21 (centres undefined)
inactive: endpoint: mean survival time, dose: 100.0 mg/kg/injection, schedule: Q01DX009 (ip), vehicle: saline 96 % of control | endpoint: mean survival time, dose: 200.0 mg/kg/injection, schedule: Q01DX009 (ip), vehicle: saline 102 % of control | endpoint: mean survival time, dose: 400.0 mg/kg/injection, schedule: Q01DX009 (ip), vehicle: saline 98 % of control
